# Source: US20060128577A1, “Use of alkoxylated hydroxycarboxylic acid esters for solubilizing perfume oils in water” (priority 2004, published 2006)
# Test: Solubilizing effect of surfactants for perfume oil in water (10% by weight aqueous surfactant solution, perfume oil quantity before clouding)
# Format: physicochemical
# Settings: 10% by weight aqueous solution of surfactant, higher = better solubilizing effect
# Description: 1. In order to test the effect according to the invention, a 10% by weight aqueous solution of various surfactants was prepared. To this end, the surfactant was first mixed with the perfume oil and water was then added. The higher the percentage content of perfume oil, the better the solubilizing effect of the surfactant. In Table 1 below, V stands for known products and E for alkoxylated esters according to the invention.
# Examples E1 and E2 according to the invention use a citric acid ester as described in 1.1 or 1.2.
substance,measurement,setting,value
2-Hydroxy-C12-(PO)1-(EO)9-glycol ether [Example V1a],Quantity (% by wt.) before clouding,perfume oil: Lemon oil terpene,4 % by wt.
same,Quantity (% by wt.) before clouding,perfume oil: Octyl aldehyde,2 % by wt.
same,Quantity (% by wt.) before clouding,perfume oil: Orange oil,4 % by wt.
